Values of other authors in US11053255B2, “Synthesis of mahanine and related compounds” (Georgetown University, priority 2015, dated 2021).

Tests used:
[1] = test system: cyclin D1; conditions: prostate cancer cells
[2] = test system: RASSF1A; conditions: human prostate cancer cells, dose-dependent
[3] = test system: androgen-responsive, LNCaP prostate cancer cells; conditions: in vitro
[4] = test system: androgen-independent, PC3 prostate cancer cells; conditions: in vitro

For `CC(C)=CCC[C@]1(C)C=Cc2c(c(C)cc3c2[nH]c2cc(O)ccc23)O1` [mahanine, (R)-3,5-dimethyl-3-(4-methylpent-3-en-1-yl)-3,11-dihydropyrano[3,2-a]carbazol-9-ol], the “cyclin D1 transcriptional activity” value [1] is given as “represses cyclin D1 transcriptional activity”, the “expression of RASSF1A” value [2] is given as “induces the expression of RASSF1A” and the growth inhibition [3] is given as “inhibits growth”. The induction of apoptosis [3] was “induces apoptosis”, the growth inhibition [4] was “inhibits growth” and the induction of apoptosis [4] was “induces apoptosis”.
